Reference: US20050282824A1, “Substituted pyrimidines as inhibitors of bacterial type III protein secretion systems” (priority 2004, published 2005)

Columns and labels:
Format in all cases: cell-based
[1] = test system: Type III protein secretion of ExoU by P. aeruginosa PA103; test: Tertiary assay: Type III-dependent secretion of ExoU by P. aeruginosa PA103; conditions: Pseudomonas aeruginosa, read-out: ExoU IC50(uM)
Text: Tertiary assay: inhibition of Type III protein secretion of effectors from a Pseudomonas aeruginosa system. Type III protein secretion is used by P. aeruginosa to secrete several essential virulence determinants. One effector of the type III protein secretion system of P. aeruginosa PA 103 is the virulence determinants ExoU.
The amount of Type III-dependent secretion of ExoU by P. aeruginosa PA103 can be determined in a cell-based assay by quantification of the 73.9 kDa ExoU protein secreted into the extracellular medium. Such quantitation can be achieved by growing strain PA 103 in a deferrated medium in the presence of nitrilotriacetic acid (an inducer of Type III protein secretion in P. aeruginosa) and either in the presence or absence of putative inhibitors. After a prolonged growth period, the cells are sedimented and the supernatants concentrated by ammonium sulfate precipitation. The proteins in the resuspended pellets are separated by electrophoresis on SDS-polyacrylamide gels. After staining gels with Colloidal Blue™, the 73.9 kDa ExoU band is quantitated by scanning through an imager. The effects of inhibitors on the intensity of the ExoU band may be measured relative to that of untreated controls.

[2] = test system: SPI1 type III protein secretion of SipB by S. enterica; test: Secondary assay: Type III-dependent protein secretion of the SipB polypeptide by S. enterica; conditions: Salmonella enterica, read-out: SipB IC50(uM)
Description: Secondary assay: Type III-dependent protein secretion of the SipB polypeptide by S. enterica. The SipB protein of S. enterica is another effector of the SPI1 type III protein secretion system from S. enterica. In this cell-based procedure, the Type III-dependent secretion of SipB from the bacterial cytoplasm to the extracellular medium was measured through its reactivity with a cognate mouse monoclonal.
Salmonella enterica cells growing either in the presence or in the absence of inhibitors are induced for the production of SipB. Following an established period of growth the cells are sedimented and the amount of SipB present in the supernatant is quantified with a scanning imager following application of immunoblot techniques. Detection may employ an anti-SipB mouse monoclonal antibody (e.g., obtained from Jorge Galan, SUNY at Stony Brook, N.Y.) followed by treatment with commercially available sheep anti-mouse polyclonal antibody conjugated with horseradish peroxidase. Thereafter the membrane is treated with a peroxidase chemiluminescent substrate and exposed to film for an appropriate exposure time. Inhibition may be measured relative to untreated controls.

[3] = test system: SPI1 type III protein secretion of SopE'-'Bla by Salmonella enterica; test: Primary assay: Type III protein secretion of the chimeric SopE'-'Bla polypeptide by Salmonella enterica; conditions: read-out: SopE IC50(uM)
Text: Primary assay: Type III protein secretion of the chimeric SopE′-′Bla polypeptide by Salmonella enterica. This procedure is a cell-based assay that measures the type III-dependent secretion by Salmonella enterica of a plasmid-encoded chimeric polypeptide whose synthesis can be regulated, and which is endowed with an enzymatic activity that can be monitored […] by hydrolysis of a substrate that is unable to penetrate into the bacterial cytoplasm within the time constraints of the reaction. Thus, the colorimetric reaction is not influenced by SopE′-′Bla polypeptide in the bacterial cytoplasm. Instead, it effectively measures the amount of polypeptide that has been secreted from the S. enterica cytoplasm to the extracellular medium via type III system protein secretion.
The SopE′-′Bla recombinant polypeptide consists of two functionally distinct domains spliced together. The N-terminus domain is encoded by a polynucleotide region specifying the signal for type III secretion of the SopE polypeptide of S. enterica, an effector of the SPI1 type III protein secretion system. The C-terminus domain of SopE′-′Bla consists of a 263 amino acid peptide sequence that corresponds to the TEM-1 β-lactamase expressed by plasmid pBR322 but without its N-terminal signal sequence. The TEM-1 β-lactamase part of the SopE′-′Bla chimeric polypeptide is used as a reporter enzyme. It is capable of hydrolyzing nitrocefin resulting in a product whose accumulation can be monitored by colorimetric detection. The secretion of the SopE′-′Bla chimeric polypeptide from the cytoplasm to the extracellular medium is dependent on type III protein secretion.
For this procedure, cells grown under conditions known to favor a functional SPI1 secretion system are induced for expression of the SopE′-′Bla protein and grown either in the presence or in the absence of putative inhibitors for determined time. Nitrocefin is then added to the various cultures and its hydrolysis are used for quantitation. An inhibitor of Type III protein secretion is generally a compound that reduces the signal of the enzymatic reaction by decreasing the amount of SopE′-′Bla secreted into the extracellular medium.

Row | Compound | IC50 [1] | IC50 [2] | IC50 [3]
1 | O=C(N[C@H](Cc1ccc(Cl)cc1)C(=O)O)c1cc(N2CCCCC2)nc(N2CCC(c3ccccc3)CC2)n1 [Compound 4, (R)-3-(4-Chlorophenyl)-2-{[2-(4-phenylpiperidin-1-yl)-6-piperidin-1-yl-pyrimidine-4-carbonyl]amino}propionic acid] | > 100 µM | 27 µM | 2 µM
2 | C[C@@H](OCc1ccccc1)[C@H](NC(=O)c1cc(N2CCCCC2)nc(N2CCC(c3ccccc3)CC2)n1)C(=O)O [Compound 30, (2S,3R)-3-Benzyloxy-2-{[2-(4-phenylpiperidin-1-yl)-6-piperidin-1-yl-pyrimidine-4-carbonyl]amino}butyric acid] | > 100 µM | 17.9 µM | 4.6 µM
3 | O=C(N[C@H](COCc1ccccc1)C(=O)O)c1cc(N2CCC(c3ccccc3)CC2)nc(-c2ccc(Cl)c(Cl)c2)n1 [Compound 11, (R)-3-Benzyloxy-2-{[2-(3,4-dichlorophenyl)-6-(4-phenylpiperidin-1-yl)-pyrimidine-4-carbonyl]amino}propionic acid] | 92.2 µM | 44.2 µM | 1.4 µM
4 | O=C(N[C@H](Cc1ccc(Cl)cc1)C(=O)O)c1cc(N2CCC(c3ccccc3)CC2)nc(-c2cccc(C(F)(F)F)c2)n1 [Compound 12, (R)-3-(4-Chlorophenyl)-2-{[6-(4-phenylpiperidin-1-yl)-2-(3-trifluoromethyl-phenyl)pyrimidine-4-carbonyl]amino}propionic acid] | > 100 µM | 28.1 µM | 1.4 µM
5 | CN(C)c1ccc(-c2nc(C(=O)N[C@@H](COCc3ccccc3)C(=O)O)cc(N3CCN(c4nccc(C(F)(F)F)n4)CC3)n2)cc1 [Compound 49, (S)-3-Benzyloxy-2-({2-(4-dimethylaminophenyl)-6-[4-(4-trifluoromethylpyrimidin-2-yl)piperazin-1-yl]pyrimidine-4-carbonyl}amino)propionic acid] | 92.6 µM | 7.2 µM | 5.9 µM
6 | Cc1cc(C(=O)NC(CSCc2ccccc2)C(=O)O)nc(-c2ccc(-c3ccccc3)cc2)n1 (stereo not drawn) [Compound 35, 3-Benzylsulfanyl-2-[(2-biphenyl-4-yl-6-methyl-pyrimidine-4-carbonyl)-amino]-propionic acid] | > 100 µM | 59.2 µM | 17.7 µM
7 | O=C(N[C@@H](CSCc1ccccc1)C(=O)O)c1cc(N2CCN(c3nccc(C(F)(F)F)n3)CC2)nc(-c2ccoc2)n1 [Compound 61, (R)-3-Benzylsulfanyl-2-({2-furan-3-yl-6-[4-(4-trifluoromethylpyrimidin-2-yl)-piperazin-1-yl]pyrimidine-4-carbonyl}amino)propionic acid] | > 100 µM | 43.2 µM | 10.2 µM
8 | O=C(N[C@@H](CSCc1ccccc1)C(=O)O)c1cc(N2CCCCC2)nc(-c2ccc(-c3ccccc3)cc2)n1 [Compound 3, (R)-3-Benzylsulfanyl-2-[(2-biphenyl-4-yl-6-piperidin-1-yl-pyrimidine-4-carbonyl)-amino]propionic acid] | 37.6 µM | 3 µM | 4.1 µM
9 | CN(C)c1ccc(-c2nc(C(=O)N[C@H](Cc3ccc(Cl)cc3)C(=O)O)cc(N3CCC(c4ccccc4)CC3)n2)cc1 [Compound 14, (R)-3-(4-Chlorophenyl)-2-{[2-(4-dimethylaminophenyl)-6-(4-phenylpiperidin-1-yl)pyrimidine-4-carbonyl]amino}propionic acid] | > 100 µM | 27.6 µM | 1.8 µM
10 | CC1CCN(c2cc(C(=O)N[C@@H](COCc3ccccc3)C(=O)O)nc(-c3ccc(Oc4ccccc4)cc3)n2)CC1 [Compound 38, (S)-3-Benzyloxy-2-{[6-(4-methylpiperidin-1-yl)-2-(4-phenoxyphenyl)pyrimidine-4-carbonyl]amino}propionic acid] | 82.8 µM | 7.1 µM | 1.3 µM
11 | CC1CCN(c2cc(C(=O)N[C@@H](COCc3ccccc3)C(=O)O)nc(-c3ccc(-c4ccccc4)cc3)n2)CC1 [Compound 41, (S)-3-Benzyloxy-2-{[2-biphenyl-4-yl-6-(4-methylpiperidin-1-yl)pyrimidine-4-carbonyl]amino}propionic acid] | 67.4 µM | 28.6 µM | 2.4 µM
12 | N#Cc1ccc(-c2nc(C(=O)N[C@@H](CSCc3ccccc3)C(=O)O)cc(N3CCN(c4ccccc4)CC3)n2)cc1 [Compound 25, (R)-3-Benzylsulfanyl-2-{[2-(4-cyanophenyl)-6-(4-phenyl-piperazin-1-yl)-pyrimidine-4-carbonyl]amino}propionic acid] | 57.2 µM | 51.9 µM | 6.5 µM
13 | O=C(N[C@@H](CSCc1ccccc1)C(=O)O)c1cc(N2CCC(c3ccccc3)CC2)nc(-c2ccc(F)c(F)c2)n1 [Compound 18, (R)-3-Benzylsulfanyl-2-{[2-(3,4-difluorophenyl)-6-(4-phenylpiperidin-1-yl)-pyrimidine-4-carbonyl]amino}propionic acid] | 46.6 µM | 16.8 µM | 19 µM
14 | CC1CCN(c2cc(C(=O)NC(Cc3ccc(Cl)cc3)C(=O)O)nc(-c3ccc(-c4ccccc4)cc3)n2)CC1 (stereo not drawn) [Compound 42, 2-{[2-Biphenyl-4-yl-6-(4-methylpiperidin-1-yl)pyrimidine-4-carbonyl]amino}-3-(4-chlorophenyl)propionic acid] | > 100 µM | 22.3 µM | 4.8 µM
15 | CC1CCN(c2nc(C(=O)N[C@@H](CSCc3ccccc3)C(=O)O)cc(N3CCN(c4ccccc4)CC3)n2)CC1 [Compound 27, (R)-3-Benzylsulfanyl-2-{[2-(4-methylpiperidin-1-yl)-6-(4-phenyl-piperazin-1-yl)-pyrimidine-4-carbonyl]amino}propionic acid] | > 100 µM | 8.8 µM | 5.3 µM
16 | O=C(N[C@H](Cc1ccc(Cl)cc1)C(=O)O)c1cc(N2CCCc3ccccc32)nc(-c2ccc(Oc3ccccc3)cc2)n1 [Compound 16, (R)-3-(4-Chlorophenyl)-2-{[6-(3,4-dihydro-2H-quinolin-1-yl)-2-(4-phenoxy-phenyl)pyrimidine-4-carbonyl]amino}propionic acid] | 62.2 µM | 10.2 µM | 6.2 µM
17 | O=C(N[C@@H](CSCc1ccccc1)C(=O)O)c1cc(N2CCN(c3ccccc3)CC2)nc(Cl)n1 [Compound 26, (R)-3-Benzylsulfanyl-2-{[2-chloro-6-(4-phenyl-piperazin-1-yl)pyrimidine-4-carbonyl]amino}propionic acid] | > 100 µM | 46.8 µM | 50.1 µM
18 | CC1CCN(c2cc(C(=O)NC(Cc3ccc(Cl)cc3)C(=O)O)nc(-c3ccc(Oc4ccccc4)cc3)n2)CC1 (stereo not drawn) [Compound 39, 3-(4-Chlorophenyl)-2-{[6-(4-methylpiperidin-1-yl)-2-(4-phenoxyphenyl)-pyrimidine-4-carbonyl]amino}propionic acid] | 74.5 µM | 13.2 µM | 1.5 µM
19 | O=C(N[C@@H](COCc1ccccc1)C(=O)O)c1cc(N2CCN(c3nccc(C(F)(F)F)n3)CC2)nc(-c2ccc([N+](=O)[O-])cc2)n1 [Compound 51, (S)-3-Benzyloxy-2-({2-(4-nitrophenyl)-6-[4-(4-trifluoromethylpyrimidin-2-yl)-piperazin-1-yl]pyrimidine-4-carbonyl}amino)propionic acid] | 55 µM | 84.5 µM | 1.9 µM
